# Results published in publication PMC12892976, “Alkylation-based optimization of antifungal FPPS inhibitors yields a potent, broad-spectrum lipophilic zoledronate derivative” (mBio, 2025).
# How the values were obtained:
# Pichia kudriavzevii [1] = test: checkerboard drug interaction (FICI, MICc); type: cell-based;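 further: antifungal plus FPPS inhibitor interactions tested in a simplified diagonal checkerboard screen, with FICI calculated under the Loewe additivity model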
# Protocol: (§1) Drug interactions between antifungals and FPPS inhibitors were investigated using a simplified checkerboard diagonal screening method ([45]). […] FICIs were determined according to the Loewe additivity model ([17]).
# Nannizzia gypsea [2] = test: checkerboard drug interaction (FICI, MICc);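 further: simplified diagonal checkerboard screen pairing antifungals with FPPS inhibitors, FICI derived using the Loewe additivity model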
# Protocol: as §1
# Aspergillus lentulus [3] = test: MIC broth microdilution (CLSI); type: cell-based; details: Aspergillus lentulus DTO 341-G7
# Protocol: (§2) Antifungal susceptibility was determined by broth microdilution according to the CLSI guidelines described in M27-Ed4 ([16]).
# Cryptococcus tetragattii = test: checkerboard drug interaction (FICI, MICc); type: cell-based;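 further: simplified diagonal checkerboard screen pairing antifungals with FPPS inhibitors, with FICI calculated under the Loewe additivity model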
# Protocol: as §1
# Fusarium solani [4] = test: MIC broth microdilution (CLSI); details: Fusarium solani 04-16-056-1862
# Protocol: as §2
# Pichia kudriavzevii [5] = test: MIC broth microdilution (CLSI); type: cell-based; details: Pichia kudriavzavii ATCC 6258
# Protocol: (§3) Antifungal susceptibility was determined by broth microdilution according to the CLSI guidelines described in M27-Ed4 ([16]). […] MFC was determined by back-plating drug-treated cultures from MIC broths onto SDA plates. The MFC was defined as the lowest concentration from which no colonies could be cultured.
# [6] = system: Trichophyton interdigitale; test: MIC broth microdilution (CLSI); type: cell-based; details: Trichophyton interdigitale R-234
# Protocol: as §2
# Scedosporium apiospermum [7] = test: checkerboard drug interaction (FICI, MICc); type: cell-based;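 further: simplified diagonal checkerboard screen of antifungal plus FPPS inhibitor pairs, with FICI computed under the Loewe additivity model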
# Protocol: as §1
# [8] = system: Trichophyton interdigitale; test: checkerboard drug interaction (FICI, MICc);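 further: simplified diagonal checkerboard screen pairing antifungals with FPPS inhibitors, FICI values calculated under the Loewe additivity model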
# Protocol: as §1
# Aspergillus udagawae = test: checkerboard drug interaction (FICI, MICc); type: cell-based;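 further: simplified diagonal checkerboard screen pairing antifungals with FPPS inhibitors, FICI calculated using the Loewe additivity model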
# Protocol: as §1
# Candida parapsilosis = test: MIC broth microdilution (CLSI); type: cell-based; details: Candida parapsilosis ATCC 22018
# Protocol: as §3
# Aspergillus parafelis = test: checkerboard drug interaction (FICI, MICc);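 further: simplified diagonal checkerboard screen pairing antifungals with FPPS inhibitors, FICI calculated under the Loewe additivity model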
# Protocol: as §1
# Aspergillus felis = test: MIC broth microdilution (CLSI); type: cell-based; details: Aspergillus felis IHE87256683D6
# Protocol: as §2
# Epidermophyton floccosum = test: checkerboard drug interaction (FICI, MICc);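 further: simplified diagonal checkerboard screen pairing antifungals with FPPS inhibitors, FICI calculated under the Loewe additivity model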
# Protocol: as §1
# Nannizzia gypsea [9] = test: MIC broth microdilution (CLSI); type: cell-based; details: Nannizzia gypsea R-131
# Protocol: as §2
# Rhizopus oryzae [10] = test: checkerboard drug interaction (FICI, MICc); type: cell-based;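 further: simplified diagonal checkerboard screen pairing antifungals with FPPS inhibitors, FICI calculated under the Loewe additivity model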
# Protocol: as §1
# Mucor circinelloides = test: MIC broth microdilution (CLSI); type: cell-based; details: Mucor circinelloides 80-14-240-5007
# Protocol: as §2
# Scedosporium apiospermum [11] = test: MIC broth microdilution (CLSI); type: cell-based; details: Scedosporium apiospermum 04-16-022-2268
# Protocol: as §2
# Lomentospora prolificans = test: checkerboard drug interaction (FICI, MICc);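 further: simplified diagonal checkerboard screen pairing antifungals with FPPS inhibitors, FICI calculated under the Loewe additivity model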
# Protocol: as §1
# Cryptococcus gattii [12] = test: checkerboard drug interaction (FICI, MICc); type: cell-based;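 further: simplified diagonal checkerboard screen pairing antifungals with FPPS inhibitors, FICI computed under the Loewe additivity model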
# Protocol: as §1
# Fusarium solani [13] = test: checkerboard drug interaction (FICI, MICc); type: cell-based;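 further: simplified diagonal checkerboard screen pairing antifungals with FPPS inhibitors, FICI derived under the Loewe additivity model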
# Protocol: as §1
# [14] = system: Cryptococcus bacillisporus; test: checkerboard drug interaction (FICI, MICc); type: cell-based;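 further: interaction of antifungals with FPPS inhibitors assessed by a simplified diagonal checkerboard screen, with FICI computed under the Loewe additivity model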
# Protocol: as §1
# Microsporum canis [15] = test: MIC broth microdilution (CLSI); details: Microsporum canis R-232
# Protocol: as §2
# Aspergillus lentulus [16] = test: checkerboard drug interaction (FICI, MICc); type: cell-based;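 further: simplified diagonal checkerboard screen pairing antifungals with FPPS inhibitors, with the interaction index calculated under the Loewe additivity model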
# Protocol: as §1
# Microsporum canis [17] = test: checkerboard drug interaction (FICI, MICc); type: cell-based
# Protocol: as §1
# Cryptococcus gattii [18] = test: MIC broth microdilution (CLSI); type: cell-based; details: Cryptococcus gattii PNG27
# Protocol: as §2
# Aspergillus terreus = test: MIC broth microdilution (CLSI); type: cell-based; details: Aspergillus terreus 75-16-089-2500
# Protocol: as §2
# Paraphyton cookei [19] = test: MIC broth microdilution (CLSI); type: cell-based; details: Paraphyton cookei R-639
# Protocol: as §2
# Candida auris = test: MIC broth microdilution (CLSI); type: cell-based; details: Candida auris CDC-0384
# Protocol: as §2
# Candida dubliniensis = test: MIC broth microdilution (CLSI); type: cell-based; details: Candida dubliniensis M230642
# Protocol: as §2
# [20] = system: Cryptococcus deneoformans; test: checkerboard drug interaction (FICI, MICc); type: cell-based
# Protocol: as §1
# Nannizzia nana = test: MIC broth microdilution (CLSI); type: cell-based; details: Nannizzia nana R-133
# Protocol: as §2
# Rhizopus oryzae [21] = test: MIC broth microdilution (CLSI); type: cell-based; details: Rhizopus oryzae 04-14-364-1703
# Protocol: as §2
# Aspergillus niger = test: MIC broth microdilution (CLSI); type: cell-based; details: Aspergillus niger 111
# Protocol: as §2
# Paraphyton cookei [22] = test: checkerboard drug interaction (FICI, MICc);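 further: simplified diagonal checkerboard screen pairing an antifungal with an FPPS inhibitor, FICI computed under the Loewe additivity model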
# Protocol: as §1
compound,measurement,setting,value
"CCC(C)n1ncn(-c2ccc(N3CCN(c4ccc(OCC5COC(Cn6cncn6)(c6ccc(Cl)cc6Cl)O5)cc4)CC3)cc2)c1=O (stereo not shown) [ITR, itraconazole]",antifungal MICc,Pichia kudriavzevii [1]; in combination with 10-ZOL,1
same,antifungal MICc,Pichia kudriavzevii [1]; in combination with ZOL,0.25
same,antifungal MICc,Nannizzia gypsea [2]; in combination with 10-ZOL,2
same,antifungal MICc,Nannizzia gypsea [2]; in combination with ZOL,0.5
same,MIC / MEC,Aspergillus lentulus [3],2 mg/L
same,antifungal MICc,Cryptococcus tetragattii; in combination with 10-ZOL,0.25
same,antifungal MICc,Cryptococcus tetragattii; in combination with ZOL,1
same,MIC / MEC,Fusarium solani [4],2 mg/L
same,MIC / MEC,Pichia kudriavzevii [5],1 mg/L
same,MIC / MEC,[6],1 mg/L
same,antifungal MICc,Scedosporium apiospermum [7]; in combination with 10-ZOL,4
same,antifungal MICc,Scedosporium apiospermum [7]; in combination with ZOL,4
same,antifungal MICc,[8]; in combination with 10-ZOL,0.5
same,antifungal MICc,[8]; in combination with ZOL,0.25
same,antifungal MICc,Aspergillus udagawae; in combination with 10-ZOL,0.25
same,antifungal MICc,Aspergillus udagawae; in combination with ZOL,0.5
same,MIC / MEC,Candida parapsilosis,0.25 mg/L
same,antifungal MICc,Aspergillus parafelis; in combination with 10-ZOL,2
same,antifungal MICc,Aspergillus parafelis; in combination with ZOL,8
same,MIC / MEC,Aspergillus felis,2 mg/L
same,antifungal MICc,Epidermophyton floccosum; in combination with 10-ZOL,0.5
same,antifungal MICc,Epidermophyton floccosum; in combination with ZOL,0.5
same,MIC / MEC,Nannizzia gypsea [9],2 mg/L
same,antifungal MICc,Rhizopus oryzae [10]; in combination with 10-ZOL,0.125
same,antifungal MICc,Rhizopus oryzae [10]; in combination with ZOL,2
same,MIC / MEC,Mucor circinelloides,0.5 mg/L
same,MIC / MEC,Scedosporium apiospermum [11],8 mg/L
same,antifungal MICc,Lomentospora prolificans; in combination with 10-ZOL,1
same,antifungal MICc,Lomentospora prolificans; in combination with ZOL,2
same,antifungal MICc,Cryptococcus gattii [12]; in combination with 10-ZOL,0.125
same,antifungal MICc,Cryptococcus gattii [12]; in combination with ZOL,0.125
same,antifungal MICc,Fusarium solani [13]; in combination with 10-ZOL,1
same,antifungal MICc,Fusarium solani [13]; in combination with ZOL,0.5
same,antifungal MICc,[14]; in combination with 10-ZOL,0.033
same,antifungal MICc,[14]; in combination with ZOL,0.0625
same,MIC / MEC,Microsporum canis [15],0.5 mg/L
same,antifungal MICc,Aspergillus lentulus [16]; in combination with 10-ZOL,0.25
same,antifungal MICc,Aspergillus lentulus [16]; in combination with ZOL,0.5
same,antifungal MICc,Microsporum canis [17]; in combination with 10-ZOL,0.063
same,antifungal MICc,Microsporum canis [17]; in combination with ZOL,0.25
same,MIC / MEC,Cryptococcus gattii [18],0.25 mg/L
same,MIC / MEC,Aspergillus terreus,0.5 mg/L
same,MIC / MEC,Paraphyton cookei [19],2 mg/L
same,MIC / MEC,Candida auris,2 mg/L
same,MIC / MEC,Candida dubliniensis,0.13 mg/L
same,antifungal MICc,[20]; in combination with 10-ZOL,0.063
same,antifungal MICc,[20]; in combination with ZOL,0.125
same,MIC / MEC,Nannizzia nana,0.25 mg/L
same,MIC / MEC,Rhizopus oryzae [21],2 mg/L
same,MIC / MEC,Aspergillus niger,2 mg/L
same,antifungal MICc,Paraphyton cookei [22]; in combination with 10-ZOL,0.063
same,antifungal MICc,Paraphyton cookei [22]; in combination with ZOL,1
